Reference: US6916797B2, “α-arylethylpiperazine derivatives as neurokinin antagonists” (UCB, S.A., priority 2000, dated 2005)

Experiments:
NK1 receptors = NK1 receptors (Homo sapiens, UniProt P25103); test: Binding of [4,5-3H-Leu10] substance P to human recombinant NK1 receptors expressed in CHO cell membranes; set-up: host or cells: CHO cells; conditions: pIC50 = -log IC50, concentration inhibiting by 50% the specific binding of [4,5-3H] substance P; tested as the free base/salt given in c1
Experimental: The following test was designed to assess the affinity of test substances for human recombinant NK1 receptors expressed in Chinese Hamster Ovarian (CHO) cells.
CHO cells expressing the human recombinant NK1 receptor are used. The cells were obtained from Euroscreen (Brussels, Belgium).
Cells expressing the human NK1 receptor are routinely cultured in 175 cm2 flasks containing 75 ml of medium F12 (Ham) enriched with 2 mmol/l L-glutamine, 100 IU/ml penicilline, 100 μg/ml streptomycine, 1% sodium pyruvate, 2.5 μg/ml fungizone amphotericin B, 400 μg/ml geneticin and supplemented with 10% foetal calf serum. […] When subcultured, the cells are seeded at a concentration of 50,000 cells/cm2.
Confluent cells are gently scraped and resuspended in 25 ml of phosphate buffered saline without calcium and magnesium. The cellular suspension is centrifuged at 1500×g for 3 min (4° C.). The cell pellet is homogenized in a 15 mmol/l Tris-HCl (pH 7.5) buffer, 2 mmol/l MgCl2, 0.3 mmol/l EDTA, 1 mmol/l EGTA. The crude membrane fraction is collected by two consecutive centrifugation steps at 40,000×g for 25 min (4° C.). The final pellet is resuspended in 20 mmol/l Tris-HCl (pH 7.4), 250 mmol/l sucrose buffer at a protein concentration ranging from 2 to 6 mg/ml and stored in liquid nitrogen. • 1.2.2. Test Design
The inhibition constant (Ki) is determined using increasing concentrations of the test substance. The concentration range usually encompasses 6 log units with variable steps (0.3 to 1 log). Assays are performed in mono- or duplicate.
Membranes are incubated at 25° C. for 60 min in 0.5 ml of a 50 mmol/l Tris-HCl buffer (pH 7.4) containing 2 mmol/l MgCl2, 100 μg/ml bacitracine, 0.1 to 0.4×10^−9 mol/l of [4,5^3H-Leu^10] substance P (specific activity>100 Ci/mmol) and increasing concentrations of the test substance. […] Membrane-bound and free radioligands are separated by rapid filtration through glass fiber filters (equivalent to Whatman GF/C or GF/B; VEL, Belgium) presoaked in 0.1% polyethyleneimine to reduce non specific binding. Samples and filters are rinsed by at least 6 ml of 50 mmol/l Tris-HCl (pH 7.4) buffer.
Initial values for the different variables may be provided by the experimenter.

[1] = tested on: verapamil binding site of the L-type calcium channel; test: Inhibition of [3H]D888 binding to the verapamil binding site of the L-type calcium channel (rat cerebral cortex membranes); conditions: 10 μmol/l of test substance
Experimental: 200-250 g male Sprague-Dawley rats are sacrificed by decapitation. Cerebral cortices are quickly dissected on ice and homogenized in a 20 mmol/l Tris-HCl (pH 7.4) buffer containing 250 mmol/l sucrose (buffer A). The homogenate is centrifuged at 30,000 g for 15 min at 4° C. The resulting crude membrane pellet is resuspended in a 50 mmol/l Tris-HCl (pH 7.4) buffer and incubated 15 min at 37° C. before being centrifuged at 30,000×g for 15 min at 4° C. After two more washes under the same conditions, the final pellet is resuspended in buffer A at a protein concentration ranging from 15 to 25 mg/ml and stored in liquid nitrogen.
Binding experiments are essentially performed according to Reynolds J. et al., J. Pharmacol. Exp. Ther. (1986), 237, 731-738. (1986) with slight modifications.
Membranes (120-175 μg/assay) are incubated at 25° C. for 60 min in 0.5 ml of a 50 mmol/l Tris-HCl buffer (pH 7.4) containing 2 mmol/l MgCl2, 0.2 to 0.4×10-9 mol/l of [^3H]D888 (85 Ci/mmol; Amersham, Belgium) and 10 μmol/l of the test substance. The non specific binding (NSB) is defined as the residual binding observed in the presence 10 μM verapamil. Membrane-bound and -free radioligands are separated by rapid filtration through glass fiber filters (equivalent to Whatman GF/C or GF/B; VEL, Belgium) presoaked in 0.1% polyethyleneimine to reduce non specific binding. Samples and filters are rinsed by at least 6 ml of 50 mmol/l Tris-HCl (pH 7.4) buffer. […] The radioactivity trapped onto the filters is counted by liquid scintillation in a β-counter.
The inhibition of the radioligand specific binding is calculated as follows: [formula] • where BI and Bo represent the binding observed in the presence and absence of the test substance respectively; and • BNS is the non specific binding.
Data analysis is performed by a computerized non linear curve fitting method using a set of equations describing several binding models assuming competitive interactions between ligands (Weiland G. A. and P. B. Molinoff Life Science (1981), 29, 313-330; Molinoff P. et al. (1981) Life Sci., 29, 427-443).

[2] = tested on: isolated rat aorta contracted by 100 mM KCl; test: Effect of compound on isolated rat aorta contracted by 100 mM KCl; conditions: 10^−5 M; contraction by 100 mM KCl
Experimental: Rat thoracic aorta depolarized by 100 mM KCl develops a contraction induced by an influx of Ca^2+ into the smooth muscle cell. An inhibition of this contraction could predict a Ca^2+ antagonist activity.
The method was adapted from Polster P. et al., J. Pharmacol. Exp. Ther. (1990), 255, 593: rings of thoracic aorta were prepared from male Wistar rats (250-400 g) and mounted under an optimal resting tension of 2 g in 10 ml organ baths containing modified Krebs' solution (NaCl 112 mM, NaHCO3 25 mM, KCl 5 mM, MgSO4 1.2 mM, CaCl2 2.5 mM, KH2PO4 1 mM and glucose 11.5 mM, pH 7.4). The bathing solution was maintained at a temperature of 37° C. and gassed with 95% O2 and 5% CO2. Isometric contractions were measured with a force transducer connected to an amplifier. A computer system was used to control data acquisition and fluid circulation through electrovalves. Drugs were manually injected into the bath.
Each ring was allowed to equilibrate for 60 min in the modified Krebs' solution. […] After obtaining two reproducible control contractions, a 3rd contraction was induced and the test compound was added to the bathing medium for 2 hours. Only preparation in which the contractions were matched were used. Each tissue received only one concentration of the test compound. Appropriate control experiments were conducted in order to test the effect of the solvant.
To normalize data, the change in tension due to the drug was compared to the change of tension due to the solvant and expressed as percentage of the induced relaxation of the initial contraction. Raw data were processed by a computer system and the pD′2 value was calculated following the method of Van Rossum J. M. et al., Arch. Int. Pharmacodyn. Ther. (1963), 143, 299.

Sequence of NK1 receptors (P25103 whole entry): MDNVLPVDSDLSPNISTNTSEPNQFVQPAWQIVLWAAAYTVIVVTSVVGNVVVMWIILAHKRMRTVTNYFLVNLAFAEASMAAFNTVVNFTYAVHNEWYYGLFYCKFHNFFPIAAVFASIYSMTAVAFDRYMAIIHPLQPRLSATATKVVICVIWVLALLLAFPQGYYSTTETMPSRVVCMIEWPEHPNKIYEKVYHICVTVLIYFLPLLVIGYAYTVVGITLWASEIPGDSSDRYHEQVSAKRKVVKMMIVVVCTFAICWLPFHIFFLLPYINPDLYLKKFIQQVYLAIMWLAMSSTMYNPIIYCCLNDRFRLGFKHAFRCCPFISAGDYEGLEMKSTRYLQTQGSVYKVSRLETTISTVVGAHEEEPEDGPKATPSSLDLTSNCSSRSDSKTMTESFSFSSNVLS

SMILES | IC50 (NK1 receptors) | % inhibition of [3H]D888 binding to the verapamil binding site of the L-type calcium channel [1] | Result: effect of compound on isolated rat aorta contracted by 100 mM KCl [2]
O=S(=O)(O)CCCN1CCN(C(COCc2cc(C(F)(F)F)cc(C(F)(F)F)c2)c2ccccc2)CC1 (racemic) [Compound 160] | 31.6 nM | 0 (0: inhibition < 20%) | inactive à 10^−5 M
O=C(O)CCCCCN1CCN(C(COCc2cc(C(F)(F)F)cc(C(F)(F)F)c2)c2ccccc2)CC1 (racemic) [Compound 234, 6-{4-[2-(3,5-Bis-trifluoromethyl-benzyloxy)-1-phenyl-ethyl]-piperazin-1-yl}-hexanoic acid] | 15.8 nM | 0 (0: inhibition < 20%) | –
O=C(O)c1ccccc1CN1CCN(C(COCc2cc(C(F)(F)F)cc(C(F)(F)F)c2)c2ccccc2)CC1 (racemic) [Compound 241] | 7.94 nM | + (+: inhibition comprised between 20 and 50%) | –
O=C(O)CN1CCN(C(COCc2cc(C(F)(F)F)cc(C(F)(F)F)c2)c2ccc(Br)cc2)CC1 (racemic) [Compound 250] | 79.4 nM | + (+: inhibition comprised between 20 and 50%) | –
CNC(=O)CN1CCN(C(COCc2cc(C(F)(F)F)cc(C(F)(F)F)c2)c2ccccc2)CC1 (racemic) [Compound 292, 2-{4-[2-(3,5-Bis-trifluoromethyl-benzyloxy)-1-phenyl-ethyl]-piperazin-1-yl}-N-methyl-acetamide] | 15.8 nM | + (+: inhibition comprised between 20 and 50%) | –
CC(OCC(c1ccccc1)N1CCN(CC(=O)O)CC1)c1cc(C(F)(F)F)cc(C(F)(F)F)c1 (single isomer, unassigned) [Compound 273] | 3.16 nM | 0 (0: inhibition < 20%) | –
CC(OCC(c1ccccc1)N1CCN(CC(=O)O)CC1)c1cc(C(F)(F)F)cc(C(F)(F)F)c1 (single isomer, unassigned) [Compound 274] | 12.6 nM | 0 (0: inhibition < 20%) | –
O=C(O)CN1CCN([C@@H](COCc2cc(C(F)(F)F)cc(C(F)(F)F)c2)c2ccccc2)CC1 [Compound 231] | 79.4 nM | 0 (0: inhibition < 20%) | –
O=C(O)COCCN1CCN([C@@H](COCc2cc(C(F)(F)F)cc(C(F)(F)F)c2)c2ccccc2)CC1 [Compound 237] | – | 0 (0: inhibition < 20%) | inactive à 10^−5 M
C[C@@H](OC[C@@H](c1ccccc1)N1CCN(CC(=O)O)CC1)c1cc(C(F)(F)F)cc(C(F)(F)F)c1 [Compound 277] | 10 nM | 0 (0: inhibition < 20%) | –
C[C@@H](OC[C@@H](c1ccccc1)N1CCN(CCOCC(=O)O)CC1)c1cc(C(F)(F)F)cc(C(F)(F)F)c1 [Compound 281] | – | + (+: inhibition comprised between 20 and 50%) | inactive à 10^−5 M
N#CCN1CCN([C@H](COCc2cc(C(F)(F)F)cc(C(F)(F)F)c2)c2ccccc2)CC1 [Compound 291, (S)-{4-[2-(3,5-Bis-trifluoromethyl-benzyloxy)-1-phenyl-ethyl]-piperazin-1-yl}-acetonitrile] | 25.1 nM | 0 (0: inhibition < 20%) | –
CC(OCC(c1ccccc1)N1CCN(CCCCc2nnn[nH]2)CC1)c1cc(C(F)(F)F)cc(C(F)(F)F)c1 (centres unmarked) [Compound 302] | 3.98 nM | + (+: inhibition comprised between 20 and 50%) | –
CS(=O)(=O)NC(=O)COCCN1CCN(C(COCc2cc(C(F)(F)F)cc(C(F)(F)F)c2)c2ccccc2)CC1 (centres unmarked) [Compound 305, N-[(2-{4-[2-(3,5-Bis-trifluoromethyl-benzyloxy)-1-phenyl-ethyl]-piperazin-1-yl}-ethoxy)-acetyl]-methanesulfonamide] | 79.4 nM | 0 (0: inhibition < 20%) | –
O=C(COCCN1CCN(C(COCc2cc(C(F)(F)F)cc(C(F)(F)F)c2)c2ccccc2)CC1)NS(=O)(=O)c1ccccc1 (centres unmarked) [Compound 306, N-[(2-{4-[2-(3,5-Bis-trifluoromethyl-benzyloxy)-1-phenyl-ethyl]-piperazin-1-yl}-ethoxy)-acetyl]-benzenesulfonamide] | 31.6 nM | + (+: inhibition comprised between 20 and 50%) | –
Cc1ccc(S(=O)(=O)NC(=O)OCCN2CCN(C(COCc3cc(C(F)(F)F)cc(C(F)(F)F)c3)c3ccccc3)CC2)cc1 (centres unmarked) [Compound 307, N-p-toluenesulfonic-carbamic acid 2-{4-[2-(3,5-bis-trifluoromethyl-benzyloxy)-1-phenyl-ethyl]-piperazin-1-yl}-ethyl ester] | 15.8 nM | + (+: inhibition comprised between 20 and 50%) | –
O=C(O)C1CCC(N2CCN(C(COCc3cc(C(F)(F)F)cc(C(F)(F)F)c3)c3ccccc3)CC2)CC1 (stereo not drawn) [Compound 313, cis- or trans-4-{4-[2-(3,5-Bis-trifluoromethyl-benzyloxy)-1-phenyl-ethyl]-piperazin-1-yl}-cyclohexanecarboxylic acid] | 15.8 nM | 0 (0: inhibition < 20%) | –
